Patent US20080311126A1, “Antisense Oligonucleotides Directed to Ribonucleotide Reducatase R2 and Uses Thereof in Combination Therapies for the Treatment of Cancer” (Genesense Technologies, Inc, priority 2004, published 2008)
Oligonucleotides are written 5' to 3', each unit as a sugar letter and its base; * is a phosphorothioate linkage, no mark a phosphodiester; rarer units and linkages stand in square brackets, end groups in braces. Plain capitals give the bases only. d = 2'-deoxy (DNA)

Tests used:
Assay type in all cases: cell-based, human
[1] = system: Hela S3 cells; test: Relative colony forming efficiency, lipofectin +/- oligonucleotide 4 hours; details: Hela S3 cervix carcinoma cells; averages of 2-8 determinations
Experimental: Colony forming efficiency was determined using standard protocols. Briefly, the cells were cultured for 24 hours at 37° C. in growth medium with 10% fetal bovine serum. The cells were washed in 5 ml phosphate buffered saline, pH 7.2, once prior to lipofectin +/−oligonucleotide treatment.
The test oligonucleotides were added to cell cultures in the presence of 2.5 μg of DOTMA/DOPE (Lipofectin; Life Technologies, Inc.) for four hours. The oligonucleotide was tested at 0.2 μM unless otherwise indicated. Controls were the cultures treated with lipofectin but without the oligonucleotide. After 4 hours the medium containing the oligonucleotide was removed and washed with 5 ml of growth medium. The cells were then cultured in growth medium containing 10% fetal bovine serum for seven to ten days. Surviving cells were visualized by methylene blue staining, and colonies were scored. In some experiments cell aliquots were removed from the culture and viability was determined using the trypan blue exclusion test. Results were analyzed as percent of surviving cells compared to control cells.
AS-II-336-20 was tested for the ability to inhibit the proliferation of human tumour cells (Hela). Hela S3 cells (American Type Culture Collection, Rockville, Md., ATCC), and a Hela cell line (Hela 1 mM) previously selected for resistance to the antitumour agent, hydroxyurea, were tested (see results in Table 11). Two experiments were undertaken with Hela S3 cells. […] The same experiment was repeated with the Hela 1 mM cell line and with varying concentrations of the antisense construct AS-II-336-20 (see results in Table 11) with similar results, […] was an effective concentration for inhibiting colony formation.
To test the antisense effects of many of these sequences as phosphorthioate deoxyribonucleotides, they were examined in relative colony forming experiments conducted as described in Example 16 with a series of human tumour cell lines. The results (shown as % inhibition of colony forming ability) obtained with cancer cells derived from the bladder, breast, lung, colon, pancreas, prostate, liver and cervix, are shown in Table 13. The specific cell lines employed are as follows:
T24=bladder cell carcinoma HCT116=colon cell carcinoma A549=lung cell carcinoma MDA-MB-231=breast cell adenocarcinoma […]=pancreatic cell carcinoma PC-3=prostrate cell adenocarcinoma HepG2=hepatocellular carcinoma HeLaS3=cells isolated from a carcinoma of the cervix T-47D=breast ductal carcinoma H596=lung adenosquamous carcinoma cells Colo320=colon cell adenocarcinoma

[2] = system: PC-3 prostrate cell adenocarcinoma; test: Relative colony forming efficiency (Example 17, Table 13); details: averages of 2-8 determinations
Experimental: (§1) Colony forming efficiency was determined using standard protocols. […] The test oligonucleotides were added to cell cultures in the presence of 2.5 μg of DOTMA/DOPE (Lipofectin; Life Technologies, Inc.) for four hours. The oligonucleotide was tested at 0.2 μM unless otherwise indicated. Controls were the cultures treated with lipofectin but without the oligonucleotide. […] Surviving cells were visualized by methylene blue staining, and colonies were scored. In some experiments cell aliquots were removed from the culture and viability was determined using the trypan blue exclusion test. Results were analyzed as percent of surviving cells compared to control cells. To test the antisense effects of many of these sequences as phosphorthioate deoxyribonucleotides, they were examined in relative colony forming experiments conducted as described in Example 16 with a series of human tumour cell lines. The results (shown as % inhibition of colony forming ability) obtained with cancer cells derived from the bladder, breast, lung, colon, pancreas, prostate, liver and cervix, are shown in Table 13. The specific cell lines employed are as follows: […]

[3] = system: HCT116 colon cell carcinoma; test: as above; details: averages of 2-8 determinations
Experimental: as §1

[4] = system: HepG2 hepatocellular carcinoma; test: as above; details: averages of 2-8 determinations
Experimental: as §1

[5] = system: T24 bladder cell carcinoma; test: as above; details: averages of 2-8 determinations
Experimental: as §1

[6] = system: A549 lung cell carcinoma; test: as above; details: averages of 2-8 determinations
Experimental: as §1

[7] = system: MDA PaCa-2 pancreatic cell carcinoma; test: as above; details: MIA PaCa-2 pancreatic cell carcinoma; averages of 2-8 determinations
Experimental: as §1

[8] = system: MDA-MB-231 breast cell adenocarcinoma; test: as above; details: averages of 2-8 determinations
Experimental: as §1

| Substance | Reduced relative colony forming efficiency, Hela S3 (% inhibition of colony forming ability) [1] | Reduced relative colony forming efficiency, PC-3 (% inhibition of colony forming ability) [2] | Reduced relative colony forming efficiency, HCT116 (% inhibition of colony forming ability) [3] | Reduced relative colony forming efficiency, HepG2 (% inhibition of colony forming ability) [4] | Reduced relative colony forming efficiency, T24 (% inhibition of colony forming ability) [5] | Reduced relative colony forming efficiency, A549 (% inhibition of colony forming ability) [6] | Reduced relative colony forming efficiency, MIA PaCa-2 (% inhibition of colony forming ability) [7] | Reduced relative colony forming efficiency, MDA-MB-231 (% inhibition of colony forming ability) [8] |
| --- | --- | --- | --- | --- | --- | --- | --- | --- |
| AS-II-114420 (antisense dG*dT*dA*dT*dT*dG*dC*dT*dT*dC*dA*dT*dT*dA*dG*dA*dG*dT*dG*dC) | 50.57% | 30.21% | 54.25% | 92.17% | 62.9% | 61.81% | 46.39% | – |
| AS-II-218220 (antisense dC*dG*dT*dT*dG*dA*dG*dG*dA*dA*dA*dA*dT*dA*dC*dA*dG*dT*dG*dA) | – | 85.91% | 77.66% | 95.48% | 67.76% | 90.97% | 56.43% | 84.95% |
| ATAAAGTCAAATGGGTTCTC (antisense dA*dT*dA*dA*dA*dG*dT*dC*dA*dA*dA*dT*dG*dG*dG*dT*dT*dC*dT*dC) [AS-II-1224-20] | 14.8% | 80.66% | 41.78% | 76.05% | 38.31% | 55.06% | 17.22% | – |
| ATGGAAAAAAAAAATCAGCC (antisense dA*dT*dG*dG*dA*dA*dA*dA*dA*dA*dA*dA*dA*dA*dT*dC*dA*dG*dC*dC) [AS-II-1390-20] | – | 76.76% | 62.18% | 90.21% | 61.13% | 88.31% | 82.77% | 66.89% |
| GAACATCAGGCAAGCAAAAT (antisense dG*dA*dA*dC*dA*dT*dC*dA*dG*dG*dC*dA*dA*dG*dC*dA*dA*dA*dA*dT) [AS-II-1006-20] | 41.79% | 92.58% | 45.56% | 89.31% | 61.49% | 61.62% | 47.93% | – |
| GAGAAATAAAATGAAACGGC (antisense dG*dA*dG*dA*dA*dA*dT*dA*dA*dA*dA*dT*dG*dA*dA*dA*dC*dG*dG*dC) [AS-II-2164-20] | – | 83.36% | 50.08% | 93.07% | 61.84% | 91.15% | 89.36% | 69.03% |
| GCAAAGAAAGCCAGAACATG (antisense dG*dC*dA*dA*dA*dG*dA*dA*dA*dG*dC*dC*dA*dG*dA*dA*dC*dA*dT*dG) [AS-II-579-20] | – | 88.16% | 69.08% | 94.28% | 76.68% | 95.49% | 97.55% | 66.89% |
| GCAAAGGCTACAACACGTTC (antisense dG*dC*dA*dA*dA*dG*dG*dC*dT*dA*dC*dA*dA*dC*dA*dC*dG*dT*dT*dC) [AS-II-861-20] | – | 87.33% | 74.2% | 96.08% | 73.5% | 95.78% | 97.3% | 89.98% |
| GCACATCTTCAGTTCATTTA (antisense dG*dC*dA*dC*dA*dT*dC*dT*dT*dC*dA*dG*dT*dT*dC*dA*dT*dT*dT*dA) [AS-II-1362-20] | – | 77.38% | 78.47% | 80.41% | – | 83.9% | 44.14% | 70.22% |
| GCCACAGGATAAAAACACAA (antisense dG*dC*dC*dA*dC*dA*dG*dG*dA*dT*dA*dA*dA*dA*dA*dC*dA*dC*dA*dA) [AS-II-2009-20] | – | 83.36% | 69.92% | 96.99% | 61.84% | 93.32% | 93.74% | 96.25% |
| TCAGGCAAGCAAAATCACAG (antisense dT*dC*dA*dG*dG*dC*dA*dA*dG*dC*dA*dA*dA*dA*dT*dC*dA*dC*dA*dG) [AS-II-1001-20] | – | 85.94% | 55.58% | 90.36% | 86.11% | 71.36% | 64.21% | 82.17% |
| TTAGAAGTCAGCATCCAAGG (antisense dT*dT*dA*dG*dA*dA*dG*dT*dC*dA*dG*dC*dA*dT*dC*dC*dA*dA*dG*dG) [AS-II-1345-20] | – | 89.58% | 65.7% | 75.42% | 51.26% | 73.1% | 77.39% | 94.11% |
